Measurements as given in ChEMBL document CHEMBL4420072, “Method for screening anti-cancer compounds inhibiting function of TM4SF5 and anti-cancer composition containing chalcone compounds” (2013).
In brackets after ≈: the same amount, converted by molar mass. Each block holds one compound with its values, some of them ahead of it. Activity calls are given as the source filed them. The calls are words filed in the database; no cut-off is given here.

Columns and labels:
HCT-15 = experiment: Cytotoxicity against human HCT15 cells assessed as reduction in cell viability by SRB assay; assay type: functional; conditions: read-out: ED50 (the source's name)
PC-3 = experiment: Cytotoxicity against human PC3 cells assessed as reduction in cell viability by SRB assay; assay type: functional; conditions: read-out: ED50 (the source's name)
A549 = experiment: Cytotoxicity against human A549 cells assessed as reduction in cell viability by SRB assay; assay type: functional; conditions: read-out: ED50 (the source's name)
[1] = target: T1, Transmembrane 4 L6 family member 5 (Homo sapiens) (UniProt O14894); experiment: Activation of TM4SF5 in human SNU449Tp cells in monolayer arrangement assessed as stimulation of cell growth at 20 uM incubated for 24 hrs by optical microscopy; assay type: cell-based
T1 sequence (whole entry): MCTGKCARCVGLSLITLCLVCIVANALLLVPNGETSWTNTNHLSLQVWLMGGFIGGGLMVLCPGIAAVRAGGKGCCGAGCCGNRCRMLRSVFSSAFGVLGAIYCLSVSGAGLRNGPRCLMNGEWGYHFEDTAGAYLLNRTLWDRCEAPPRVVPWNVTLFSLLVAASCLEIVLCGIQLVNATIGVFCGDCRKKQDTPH

[2] = target: T1, Transmembrane 4 L6 family member 5 (Homo sapiens); experiment: Activation of TM4SF5 in human SNU449Tp cells in multilayer arrangement assessed as stimulation of cell growth at 20 uM incubated for 24 hrs by optical microscopy; assay type: cell-based
[3] = target: T1, Transmembrane 4 L6 family member 5 (Homo sapiens); experiment: Activation of TM4SF5 in human SNU449Tp cells in monolayer arrangement assessed as effect on cell morphology at 20 uM incubated for 24 hrs by optical microscopy; assay type: cell-based
[4] = target: T1, Transmembrane 4 L6 family member 5 (Homo sapiens); experiment: Inhibition of TM4SF5 in human SNU449Tp cells assessed as effect on cell morphology at 20 uM incubated for 24 hrs by optical microscopy; assay type: cell-based
[5] = target: T1, Transmembrane 4 L6 family member 5 (Homo sapiens); experiment: Inhibition of TM4SF5 in human SNU449Tp cells assessed as inhibition of S-phase progression at 20 uM followed by BrdU addition and incubated for 24 hrs by immunofluorescent staining; assay type: cell-based
[6] = target: T1, Transmembrane 4 L6 family member 5 (Homo sapiens); experiment: Inhibition of TM4SF5 in human SNU449Tp cells assessed as restoration of cell-cell contact at 20 uM by E-cadherin and beta-catenin detection based immunofluorescent staining
[7] = Growth inhibition of TM4SF5 deficient human SNU449Cp cells assessed as reduction in cell number at 5 to 40 uM incubated up to 2 days; conditions: 48 h
[8] = target: T1, Transmembrane 4 L6 family member 5 (Homo sapiens); experiment: Inhibition of TM4SF5 in human SNU449Tp cells assessed as reduction in p27Kip1 expression by Western blotting analysis; assay type: cell-based
[9] = target: T1, Transmembrane 4 L6 family member 5 (Homo sapiens); experiment: Inhibition of TM4SF5 in human SNU449Tp cells assessed as reduction in pS10 p27Kip1 expression by Western blotting analysis; assay type: cell-based
[10] = target: T1, Transmembrane 4 L6 family member 5 (Homo sapiens); experiment: Inhibition of TM4SF5 in human SNU449Tp cells assessed as reduction in pY77 FAK expression by Western blotting analysis; assay type: cell-based
[11] = target: T1, Transmembrane 4 L6 family member 5 (Homo sapiens); experiment: Inhibition of TM4SF5 in human SNU449Tp cells assessed as reduction in alpha-SMA expression by Western blotting analysis; assay type: cell-based
[12] = target: T1, Transmembrane 4 L6 family member 5 (Homo sapiens); experiment: Inhibition of TM4SF5 in human SNU449Tp cells assessed as reduction in cytosolic p27Kip1 expression by immunofluorescent staining; assay type: cell-based
[13] = target: T1, Transmembrane 4 L6 family member 5 (Homo sapiens); experiment: Inhibition of TM4SF5 in human SNU449Tp cells assessed as restoration of reduced RhoA activity; assay type: cell-based
[14] = target: T1, Transmembrane 4 L6 family member 5 (Homo sapiens); experiment: Inhibition of TM4SF5 in human SNU449Tp cells assessed as induction of return of elongated cell shape to polygonal shape by DAPI staining based assay
[15] = target: T1, Transmembrane 4 L6 family member 5 (Homo sapiens); experiment: Inhibition of TM4SF5 in human SNU449Tp cells assessed as increase in sensitivity of N-linked glycosylated region of TM4SF5 to PNGase F; assay type: cell-based
SNU-398 = experiment: Growth inhibition of TM4SF5 deficient human SNU398 cells assessed as reduction in cell number at 1 to 20 ug/ml incubated up to 3 days; assay type: cell-based; conditions: snu-398, 72 h
[16] = target: T1, Transmembrane 4 L6 family member 5 (Homo sapiens); experiment: Inhibition of TM4SF5 in human SNU368 cells assessed as reduction in cell number at 1 to 20 ug/ml incubated up to 3 days; assay type: cell-based
[17] = target: T1, Transmembrane 4 L6 family member 5 (Homo sapiens); experiment: Inhibition of TM4SF5 in human HepG2 cells assessed as reduction in cell number at 1 to 20 ug/ml incubated up to 3 days; assay type: cell-based
[18] = target: T1, Transmembrane 4 L6 family member 5 (Homo sapiens); experiment: Inhibition of TM4SF5 in human HuH7 cells assessed as reduction in cell number at 1 to 20 ug/ml incubated up to 3 days; assay type: cell-based
[19] = target: T1, Transmembrane 4 L6 family member 5 (Homo sapiens); experiment: Inhibition of TM4SF5 in human SNU449Tp cells assessed as reduction in cell migration at 20 uM incubated for 18 hrs by Transwell chamber based assay
[20] = target: T1, Transmembrane 4 L6 family member 5 (Homo sapiens); experiment: Inhibition of TM4SF5 in human SNU449Tp cells assessed as reduction in cell invasion into collagen gel matrix at 20 uM incubated for 18 hrs; assay type: cell-based
[21] = target: T1, Transmembrane 4 L6 family member 5 (Homo sapiens); experiment: Inhibition of TM4SF5 in human SNU449Tp cells assessed as reduction in cell invasion into Matrigel gel matrix at 20 uM incubated for 24 hrs; assay type: cell-based
[22] = target: T1, Transmembrane 4 L6 family member 5 (Homo sapiens); experiment: Inhibition of TM4SF5 in human SNU449Tp cells assessed as reduction in MMP2 activity gel at 20 uM incubated for 24 hrs followed by medium exchange with serum-free medium and further incubated for 18 hrs by zymography; assay type: cell-based
[23] = target: T1, Transmembrane 4 L6 family member 5 (Homo sapiens); experiment: Inhibition of TM4SF5 in human SNU449Tp cells assessed as reduction in MMP9 activity gel at 20 uM incubated for 24 hrs followed by medium exchange with serum-free medium and further incubated for 18 hrs by zymography; assay type: cell-based

SMILES: O=C(/C=C/c1ccc(O)c(O)c1)c1ccc(OS(=O)(=O)c2cccc(F)c2)cc1
EC50 (HCT-15): 7 µg/mL (≈ 16.9 µM) | EC50 (PC-3): 8 µg/mL (≈ 19.3 µM)

SMILES: Cc1ccc(S(=O)(=O)Oc2ccc(C(=O)/C=C/c3ccc(O)cc3O)cc2)cc1
EC50 (HCT-15): 8 µg/mL (≈ 19.5 µM) | EC50 (A549): 10 µg/mL (≈ 24.4 µM)

SMILES: Cc1ccc(S(=O)(=O)Nc2ccc(C(=O)/C=C/c3ccc(O)cc3)cc2)cc1
inhibition [5]: Active | inhibition [6]: Active | growth inhibition (GI) [7]: Non-Toxic | inhibition [8]: Active | inhibition [9]: Active | inhibition [10]: Active | inhibition [11]: Active | inhibition [12]: Active | inhibition [13]: Active | inhibition [14]: Active | inhibition [15]: Active | growth inhibition (GI) (SNU-398): Non-Toxic | inhibition [16]: Active | inhibition [17]: Active | inhibition [18]: Active | inhibition [19]: Active | inhibition [20]: Active | inhibition [21]: Active | inhibition [22]: Active | inhibition [23]: Active | cell morphology effect (active/not active) [4]: Active

Results, then the compound that gave them:

Activity [1]: Active | Activity [2]: inactive | Activity [3]: Active | cell morphology effect (active/not active) [4]: inactive
SMILES: O=C(/C=C/c1ccc(O)cc1)c1ccc(O)cc1

Activity [1]: Active | Activity [2]: inactive | Activity [3]: Active | cell morphology effect (active/not active) [4]: inactive
SMILES: Nc1ccc(C(=O)/C=C/c2ccc(O)cc2)cc1

Activity [1]: Active | Activity [2]: inactive | Activity [3]: Active | cell morphology effect (active/not active) [4]: inactive
SMILES: COc1ccc(C(=O)/C=C/c2ccc(O)cc2)cc1
